This note sets out measurements from paper PMC9065575, “Synthesis, computational studies, antimycobacterial and antibacterial properties of pyrazinoic acid–isoniazid hybrid conjugates” (RSC Advances, 2019).

One data set deals with Enterococcus faecalis. Kind of data set: Aerobic antibacterial MIC, standard dilution technique. Format: cell-based. As to conditions: Enterococcus faecalis, clinical isolate; value in parentheses; read-out: Minimum inhibitory concentration (MIC) Enterococcus faecalis. The text has this:
Antibacterial properties were investigated for the synthesized compounds against a variety of Gram-positive (Staphylococcus aureus, Enterococcus faecalis) and Gram-negative (Klebsiella pneumonia, Proteus vulgaris, Pseudomonas aeruginosa) clinical isolate bacteria utilizing the standard technique.[21]

A further data set relates to Mycobacterium marinum. Briefly: microbe, parasite or virus in culture. Format: cell-based. As to conditions: clinical isolate, read-out: Minimum inhibitory concentration (MIC) M. marinum.
Another data set concerns Mycobacterium fortuitum. Briefly: microbe, parasite or virus in culture. Format: cell-based. As to conditions: Mycolicibacterium fortuitum.
The subject of the next data set is Mycobacterium bovis. Kind of data set: microbe, parasite or virus in culture. The settings on record: Mycobacterium tuberculosis variant bovis, read-out: Minimum inhibitory concentration (MIC) M. bovis. In kind it is cell-based.
The test system of data set [1] is M. tuberculosis Erdman strain expressing luciferase. Briefly: microbe, parasite or virus in culture. The settings on record: Mycobacterium tuberculosis, ERDMAN, 168 h; 30 μg mL^−1, pH 7.0, 7 days, vs untreated controls; read-out: Observed % growth inhibition at 30 µg/mL. Format: cell-based, Mycobacterium tuberculosis.
The subject of data set [2] is RPE1 (normal human immortalized retinal epithelial) cell line. Kind of data set: Antiproliferative properties by MTT technique. In kind it is cell-based. As to conditions: RPE1 cells, 100 μM. The method, then: Antiproliferative properties of the synthesized compounds were screened against RPE1 (normal human immortalized retinal epithelial) cell line to determine the toxicity/selectivity towards normal cell by the standard MTT technique.[23]
Antiproliferative properties of the synthesized compounds were tested against RPE1 (normal human immortalized retinal epithelial) cell line at 100 μM to determine the toxicity/selectivity towards normal cell by the standard MTT technique.[23]

Converted amounts (≈) assume the structure as drawn. “And” between values parts separate entries of the source, which are not always exact repeats. Equal values may be shown once. Read-outs that look alike come from different tables or passages of the source. Bounds are passed on as bounds.

In the case of `CC(C)[C@H](NC(=O)c1cnccn1)C(=O)NNC(=O)c1ccncc1` [12b, (S)-N-(1-(2-Isonicotinoylhydrazineyl)-3-methyl-1-oxobutan-2-yl)pyrazine-2-carboxamide], the melting point – broadly, the temperature of the solid-liquid transition – lay within 175 to 177 °C. Further, in the data set on Enterococcus faecalis, the MIC is 0.33 µM (≈ 0.113 µg/mL). The MIC in the data set on Mycobacterium marinum (observed MIC) was 58.4 µM. In addition, in the data set with Mycobacterium marinum, the MIC turned out to be 20 µg/mL. The MIC in the data set with Mycobacterium fortuitum (M. fortuitum, observed values listed with the BMLR-QSAR model, read-out: Observed MIC (Table S6)) worked out at 58400 µM. Also, in the data set on Mycobacterium fortuitum (clinical isolate, observed MIC, read-out: Minimum inhibitory concentration (MIC) M. fortuitum), the MIC was found to be 58.4 µM. The MIC with Mycobacterium fortuitum (clinical isolate, read-out: Minimum inhibitory concentration (MIC) M. fortuitum) amounted to 20 µg/mL. The MIC in the data set with Mycobacterium bovis was > 20 µg/mL and > 58.4 µM. Moreover, the inhibition at 30 µg/mL in data set [1] stood at 84.2%. For the same compound, in data set [2], the “Percentage of cell proliferation ± SD” value was found to be 96.4 ± 2.7%.
